Experiments:
[1] = test system: immortalized normal human bronchial epithelial cells HBEC3KT and HBEC30KT; assay: Clonogenic survival with IR, normal bronchial epithelial cells; type: cell-based; details: IC50 doses of JIB-04, 4 h prior to radiation
Method: Cells were serially diluted to appropriate concentrations and plated into 60-mm dish in triplicate for 4 h. Then cells were treated with the indicated drugs, and irradiated 4 hours later with graded doses of radiation for concurrent treatment or irradiated and 4 hours later the drugs added for post-treatment. All cells were irradiated at room temperature in ambient air using a 137Cs source (Mark 1-68 irradiator, JL Shepherd & Associated). Surviving colonies were stained with crystal violet approximately 10 to 14 days later and colonies formed with more than 50 cells were counted. Clonogenic fraction of irradiated cells was normalized to the plating efficiency of unirradiated controls. The data are presented as the mean±SD. The curve S=e^−(αD+βD2) was fitted to the experimental data using a least square fit algorithm using the program Sigma Plot 11.0 (Systat Software, Inc.).
To evaluate whether the effect of JIB-04 on DNA repair dynamics described above was cancer-selective, IC50 doses of JIB-04 in colony formation assays of immortalized normal human bronchial epithelial cells HBEC3KT and HBEC30KT were calculated (FIG. 27A). Then these doses of JIB-04 were used to pretreat cells 4 h prior to radiation and survival was measured. […]

[2] = test system: non-homologous end joining (NHEJ); assay: Green fluorescent protein NHEJ reporter assay, H1299; type: cell-based, Human; details: H1299 cells with integrated construct
Method: (§1) The green fluorescent protein assay was performed as described by Seluanov et al. To generate reporter cell lines 2 million H1299 cells were transfected with 0.5 μg of linearized NHEJ-I, or HR reporter constructs using the Amaxa Nucleofector; program X-005. G418, at 1 mg/ml, was added to the media 1 day post-transfection. Then Transient expression of the I-SceI endonuclease was used to generate a DNA DSB at the integrated GFP gene sequences. Briefly, H1299 cells containing the NHEJ or the HR constructs treated by 4 h with JIB-04 or DMSO were transfected with the pCMV3xnls-I-SceI (5 μg, functional endonuclease) and a pN1-mCherry plasmid (0.05 μg) as transfection control as previously stated. For the analysis of NHEJ and HR cells were harvested, resuspended in ˜1 ml 1×PBS, put on ice, and run on a BD FACScan instrument. GFP and mCherry fluorescence was analyzed using FlowJo software. Red-versus-green was plotted and DNA repair efficiency was calculated from the number of GFP-positive cells divided by the number of cells mCherry-positive cells.

[3] = test system: homologous recombination (HR); assay: Green fluorescent protein HR reporter assay, H1299; type: cell-based, Human; details: H1299 cells with integrated construct
Method: as §1

RAD51 = assay: RAD-51 foci kinetics after IR; type: cell-based, Human; details: JIB-04 25 nM 4 h, 10 Gy
Method: NSCLCs were seeded onto Lab-Tek II Chamber Slides (Thermo Fisher) and 24 hours later pretreated with JIB-04 or DMSO for 4 h. Then cells were exposed to a total dose of 2 Gy (γH2AX and 53BP1) or 10 Gy (RAD-51 and DNAPKcs p-T2609) radiation. For knockdown and overexpression experiments H1299 cells were transfected using the Amaxa Nucleofector; program X-005. Specifically, 3×10^6 were transfected with siRNA duplexes targeting JMJD2A, JMJD2B, Jarid1A, Jarid1b, scrambled siRNA (250 nM final concentration) or expression vectors pCMVHA-JMJD2A, pCMVHA-JMJD2B, pCMVHA-Jarid1A, pCMVHA-Jarid1B, PC-2 for 72 hours, followed by quantification of expression or irradiation. Then, cells were fixed in 4% formaldehyde/PBS for 15 min, permeabilized with 0.5% Triton X-100 for 15 min on ice, and blocked with 5% bovine serum albumin in PBS for 1 h. The slides were incubated with an antibody against phospho-Histone γH2AX (1:1000, 3 h at room temperature), 53BP1 (1:500, 3 h at room temperature), Rad-51 (1:500, 48 hs 4° C.) or DNAPKcs p-T2609 (1:500, 48 hs 4° C.). Alexa Fluor 488-conjugated goat anti-Rabbit, […] goat anti-mouse or rhodamine red-conjugated goat anti-mouse secondaries antibodies were used (1:1000, 1 h at room temperature). […] Cells were analyzed on a Zeiss upright fluorescent microscope.

H3K9me3 at DSBs = assay: γH2AX immunoprecipitation, H3K9me3 at DSBs; type: cell-based, Human; details: JIB-04 4 h, IR 20 Gy
Method: For Histone demethylase activity determination 10×10^6 H1299 cells were seeded in P150 plates. Next day cells were preincubated with JIB-04 for 4 h and then irradiated with 20 Gy. Media was removed from cells, washed with PBS and fixed with 3% w/v PFA, 2% w/v sucrose in PBS for 1 min. Then cells were washed, scraped into media, pelleted by centrifugation (at 500 g for 2 min) and washed with Phosphatase inhibitor 1×, 1 μM Wortmannin (WM) and protease inhibitors 1× (Sigma). Cell pellets were re-suspended in 2.5× the packed cell volume (PCV) of Nucleosome Preparation Buffer (NPB, 10 mM HEPES [pH 7.9], 10 mM KCl, 1.0 mM CaCl2, 1.5 mM MgCl2, 0.34 M sucrose, 10% glycerol, 1 mM DTT, 0.1% Triton X-100) containing Phosphatase inhibitor, 1 μM Wortmannin (WM) and protease inhibitors (Sigma) and 100 U ml-1 micrococcal nuclease (MNase) and incubated at […] for 45 min (note: WM is required to block in vitro DNA-PK/ATM activation by MNase-produced DSBs). An equal volume of Nucleosome Solubilization Buffer (NSB=Nucleosome preparation buffer+2% [v/v] NP-40, 2% [v/v] Triton X-100, 600 mM NaCl) was then added. Samples were then vortexed, sonicated briefly and centrifuged at 10,000 rpm for 10 min. […] Protein levels on samples were quantified and equal amounts of protein run on 4-12% SDS acrylamide gels. […] Quantification was done using the using ImageJ software (National Institute of Health, NIH)

With Clc1ccc(N/N=C(\c2ccccc2)c2ccccn2)nc1 [JIB-04] the “radiosensitization (clonogenic survival)” value [1] was “did not radiosensitize”, the NHEJ repair efficiency [2] was ≤ 50 % of normal levels and the HR repair efficiency [3] was ≤ 50 % of normal levels. The RAD51 foci resolution (RAD51) was “impaired foci resolution”, the “RAD51 recruitment (foci formation)” value (RAD51) was “significantly diminished RAD51 recruitment” and the “H3K9me3 at sites of DNA damage marked by γH2AX” value (H3K9me3 at DSBs) was “No changes in H3K9me3”.

Reference: patent US11497740B2, “Use of Jumonji C demethylase inhibitors for the treatment and prevention of chemotherapy resistance and radioresistance in cancer” (THE BOARD OF REGENTS OF THE UNIVERSITY OF TEXAS SYSTEM, priority 2016, dated 2022)
